Test results: patent US20220281821A1, “INDAZOLE COMPOUNDS AND THEIR PHARMACEUTICAL COMPOSITIONS” (Jinan University, priority 2019, published 2022)

Experiments:
Type in all cases: cell-based, mouse
[1] = molecular target: T1, BaF3-CD74-NTRK1 (Homo sapiens, UniProt P04629); experiment: Cell proliferation inhibition (CCK-8), BaF3-CD74-NTRK1 stable strain; details: BaF3-CD74-NTRK1, 72 hours
T1 construct: fused on or other part: P04233 (HLA class II histocompatibility antigen gamma chain)
Description: (§1) The brief steps of stable strain construction are as follows: construct a pCDNA3.1(+) plasmid vector carrying genes such as CD74-NTRK1, ETV6-NTRK2 and ETV6-NTRK3; the plasmid was electroporated into Ba/F3 cells using the Amaxa® Cell Line Nucleofector® Kit V; 48 hours after electroporated, G418 with a final concentration of 1000 μg/ml was added for screening for two weeks, and then IL3 was removed, and continued screening to obtain polyclonal stable strains; then single clones were selected by a limiting dilution method. The stable strains were then identified using positive drugs, WB and gene sequencing; and the monoclonal clones that were identified as completely correct may be used for the study of cell proliferation inhibitory activity of inhibitors.
(§2) Cell proliferation inhibition activity study: the cells in the logarithmic growth phase were seeded into 96-well plates at 8000-12000 cells/well, and inhibitors at different concentrations (0-10 μM) were added the next day, and incubation was continued for 72 hours; then 10 μL of CCK-8 reagent was added to each well, and the incubation was continued for 1-3 hours; and then use a super microplate reader to measure their absorbance values at 450 nm and 650 nm. The half-inhibition concentration (IC50) was calculated using GraphPad Prism 8.0.0.

[2] = molecular target: T2, BaF3-ETV6-NTRK2 (Homo sapiens, UniProt Q16620); experiment: Cell proliferation inhibition (CCK-8), BaF3-ETV6-NTRK2 stable strain; details: BaF3-ETV6-NTRK2, 72 hours
T2 construct: fused on or other part: P41212 (Transcription factor ETV6)
Description: as §1, §2

[3] = molecular target: T3, BaF3-ETV6-NTRK3 (Homo sapiens, UniProt Q16288); experiment: Cell proliferation inhibition (CCK-8), BaF3-ETV6-NTRK3 stable strain; details: BaF3-ETV6-NTRK3, 72 hours
T3 construct: fused on or other part: P41212 (Transcription factor ETV6)
Description: as §1, §2

T1 sequence (P04629 510-796 limits assumed): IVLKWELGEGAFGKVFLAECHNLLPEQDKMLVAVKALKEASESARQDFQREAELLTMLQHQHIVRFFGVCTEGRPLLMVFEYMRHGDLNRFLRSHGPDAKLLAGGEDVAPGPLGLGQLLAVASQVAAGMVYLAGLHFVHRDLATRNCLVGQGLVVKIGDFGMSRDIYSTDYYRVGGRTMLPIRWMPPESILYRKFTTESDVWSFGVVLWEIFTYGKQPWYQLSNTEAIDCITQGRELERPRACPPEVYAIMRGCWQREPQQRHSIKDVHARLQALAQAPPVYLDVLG
T2 sequence (Q16620 538-822 limits assumed): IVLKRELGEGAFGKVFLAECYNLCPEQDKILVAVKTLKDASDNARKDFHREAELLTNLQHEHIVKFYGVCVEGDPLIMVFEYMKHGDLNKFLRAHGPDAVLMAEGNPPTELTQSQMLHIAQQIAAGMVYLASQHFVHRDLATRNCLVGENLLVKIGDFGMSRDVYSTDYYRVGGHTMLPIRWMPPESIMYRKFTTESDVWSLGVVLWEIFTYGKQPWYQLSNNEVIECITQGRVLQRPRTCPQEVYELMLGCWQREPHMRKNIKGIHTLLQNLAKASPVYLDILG
T3 sequence (Q16288 whole entry, the tested form may be a part): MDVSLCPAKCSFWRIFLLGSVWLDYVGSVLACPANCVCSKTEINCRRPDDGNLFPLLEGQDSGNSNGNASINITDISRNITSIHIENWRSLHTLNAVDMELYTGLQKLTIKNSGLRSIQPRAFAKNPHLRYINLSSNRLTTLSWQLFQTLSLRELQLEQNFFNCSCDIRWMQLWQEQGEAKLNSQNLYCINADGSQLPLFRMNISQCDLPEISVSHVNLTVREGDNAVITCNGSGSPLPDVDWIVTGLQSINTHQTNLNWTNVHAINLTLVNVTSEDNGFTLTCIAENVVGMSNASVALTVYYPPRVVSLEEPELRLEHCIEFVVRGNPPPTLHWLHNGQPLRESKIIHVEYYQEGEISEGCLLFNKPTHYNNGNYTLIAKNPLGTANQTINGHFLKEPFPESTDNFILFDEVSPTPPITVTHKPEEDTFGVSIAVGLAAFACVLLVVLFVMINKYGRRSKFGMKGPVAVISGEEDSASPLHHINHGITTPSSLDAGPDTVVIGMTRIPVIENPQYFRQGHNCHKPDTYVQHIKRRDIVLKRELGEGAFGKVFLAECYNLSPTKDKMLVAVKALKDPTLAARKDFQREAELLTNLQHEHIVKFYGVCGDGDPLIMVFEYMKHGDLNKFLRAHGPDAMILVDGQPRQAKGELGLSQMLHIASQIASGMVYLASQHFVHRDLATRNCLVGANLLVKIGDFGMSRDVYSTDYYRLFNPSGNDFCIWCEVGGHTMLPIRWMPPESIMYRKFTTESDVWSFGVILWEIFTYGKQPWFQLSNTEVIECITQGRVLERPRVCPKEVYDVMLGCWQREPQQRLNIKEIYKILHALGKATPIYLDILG

| IC50 [1] [nM] | IC50 [2] [nM] | IC50 [3] [nM] | Compound |
| --- | --- | --- | --- |
| 6.5 | 9.5 | 3.1 | C[C@@H](Nc1ccc2[nH]nc(/C=C/c3cnn(C)c3)c2c1)c1cc(F)cc(F)c1 [DYX-346, (R,E)-N-(1-(3,5-difluorophenyl)ethyl)-3-(2-(1-methyl-1H-pyrazol-4-yl)vinyl)-1H-indazol-5-amine] |
| 7.4 | 10.7 | 4.3 | CCn1cc(/C=C/c2n[nH]c3ccc(N[C@H](C)c4cc(F)cc(F)c4)cc23)cn1 [DYX-349, (R,E)-N-(1-(3,5-difluorophenyl)ethyl)-3-(2-(1-ethyl-1H-pyrazol-4-yl)vinyl)-1H-indazol-5-amine] |
| 59 | 154 | 41.1 | Fc1cc(Cl)cc(CNc2ccc3[nH]nc(/C=C/c4ccccn4)c3c2)c1 [DYX-400, (E)-N-(3-fluoro-5-chlorobenzyl)-3-(2-(pyridin-2-yl)vinyl)-1H-indazol-5-amine] |
| 113 | 448 | 112 | Cc1cc(F)cc(CNc2ccc3[nH]nc(/C=C/c4ccccn4)c3c2)c1 [DYX-401, (E)-N-(3-fluoro-5-methylbenzyl)-3-(2-(pyridin-2-yl)vinyl)-1H-indazol-5-amine] |
| 28.2 | 53.5 | 22.6 | N#Cc1cc(F)cc(CNc2ccc3[nH]nc(/C=C/c4ccccn4)c3c2)c1 [DYX-402, (E)-3-fluoro-5-(((3-(2-(pyridin-2-yl)vinyl)-1H-indazol-5-yl)amino)methyl)benzonitrile] |
| 52.6 | 137 | 180 | COc1cc(F)cc(CNc2ccc3[nH]nc(/C=C/c4ccccn4)c3c2)c1 [DYX-403, (E)-N-(3-fluoro-5-methoxybenzyl)-3-(2-(pyridin-2-yl)vinyl)-1H-indazol-5-amine] |
| 6.4 | 36.9 | 7.7 | C[C@@H](Nc1ccc2[nH]nc(/C=C/c3cccnc3)c2c1)c1cc(F)cc(F)c1 [DYX-409, (R,E)-N-(1-(3,5-difluorophenyl)ethyl)-3-(2-(pyridin-3-yl)vinyl)-1H-indazol-5-amine] |
| 10.3 | 11.7 | 3.5 | C[C@@H](Nc1ccc2[nH]nc(/C=C/c3ccncc3)c2c1)c1cc(F)cc(F)c1 [DYX-410, (R,E)-N-(1-(3,5-difluorophenyl)ethyl)-3-(2-(pyridin-4-yl)vinyl)-1H-indazol-5-amine] |
| 35.7 | 38 | 11 | C[C@@H](Nc1ccc2[nH]nc(/C=C/c3cnccn3)c2c1)c1cc(F)cc(F)c1 [DYX-411, (R,E)-N-(1-(3,5-difluorophenyl)ethyl)-3-(2-(pyrazin-2-yl)vinyl)-1H-indazol-5-amine] |
| 110 | 115 | 35.6 | C[C@@H](Nc1ccc2[nH]nc(/C=C/c3ccccc3)c2c1)c1cc(F)cc(F)c1 [DYX-412, (R,E)-N-(1-(3,5-difluorophenyl)ethyl)-3-styryl-1H-indazol-5-amine] |
| 40.8 | 376 | 161 | Fc1ccccc1CNc1ccc2[nH]nc(/C=C/c3ccccn3)c2c1 [DYX-413, (E)-N-(2-fluorobenzyl)-3-(2-(pyridin-2-yl)vinyl)-1H-indazol-5-amine] |
| 196 | 2520 | 1180 | Fc1cc(CNc2ccc3[nH]nc(/C=C/c4ccccn4)c3c2)cc(C(F)(F)F)c1 [DYX-414, (E)-N-(3-fluoro-5-(trifluoromethyl)benzyl)-3-(2-(pyridin-2-yl)vinyl)-1H-indazol-5-amine] |
| 50.8 | 510 | 156 | Fc1cc(Br)cc(CNc2ccc3[nH]nc(/C=C/c4ccccn4)c3c2)c1 [DYX-415, (E)-N-(3-bromo-5-fluorobenzyl)-3-(2-(pyridin-2-yl)vinyl)-1H-indazol-5-amine] |
| 21 | 88.7 | 34.3 | Fc1ccc(Cl)c(CNc2ccc3[nH]nc(/C=C/c4ccccn4)c3c2)c1 [DYX-416, (E)-N-(2-chloro-5-fluorobenzyl)-3-(2-(pyridin-2-yl)vinyl)-1H-indazol-5-amine] |
| 158 | 2530 | 579 | Fc1ccc(CNc2ccc3[nH]nc(/C=C/c4ccccn4)c3c2)cc1 [DYX-417, (E)-N-(4-fluorobenzyl)-3-(2-(pyridin-2-yl)vinyl)-1H-indazol-5-amine] |
| 7.6 | 41 | 16.2 | COc1ccc(F)cc1CNc1ccc2[nH]nc(/C=C/c3ccccn3)c2c1 [DYX-418, (E)-N-(5-fluoro-2-methoxybenzyl)-3-(2-(pyridin-2-yl)vinyl)-1H-indazol-5-amine] |

| IC50 [1] [nM] | IC50 [2] [nM] | IC50 [3] [nM] | Compound |
| --- | --- | --- | --- |
| 2.4 | 11.9 | 4 | Fc1cncc(CNc2ccc3[nH]nc(/C=C/c4ccccn4)c3c2)c1 [DYX-419, (E)-N-((5-fluoropyridin-3-yl)methyl)-3-(2-(pyridin-2-yl)vinyl)-1H-indazol-5-amine] |
| 112 | 400 | 158 | Cc1ccccc1/C=C/c1n[nH]c2ccc(Cc3cc(F)cc(F)c3)cc12 [Example D01F08, (E)-5-(3,5-difluorobenzyl)-3-(2-methylstyryl)-1H-indazole] |
| 12.9 | 159 | 25.6 | Fc1cc(F)cc(Cc2ccc3[nH]nc(/C=C/c4ccccc4C(F)(F)F)c3c2)c1 [Example D01F11] |
| 204 | 362 | 151 | Fc1cc(Cl)cc(Cc2ccc3[nH]nc(/C=C/c4ccccn4)c3c2)c1 [Example D02F01, (E)-5-(3-chloro-5-fluorobenzyl)-3-(2-(pyridin-2-yl)vinyl)-1H-indazole] |
| 203 | 462 | 367 | COc1cc(F)cc(Cc2ccc3[nH]nc(/C=C/c4ccccn4)c3c2)c1 [Example D05F01, (E)-5-(3-fluoro-5-methoxybenzyl)-3-(2-(pyridin-2-yl)vinyl)-1H-indazole] |
| 564 | > 10000 | 851 | Clc1cc(Cl)cc(Cc2ccc3[nH]nc(/C=C/c4ccccn4)c3c2)c1 [Example D06F01, (E)-5-(3,5-dichlorobenzyl)-3-(2-(pyridin-2-yl)vinyl)-1H-indazole] |
| 2310 | 3020 | 2040 | Cc1cc(C)cc(Cc2ccc3[nH]nc(/C=C/c4ccccn4)c3c2)c1 [Example D07F01, (E)-5-(3,5-dimethylbenzyl)-3-(2-(pyridin-2-yl)vinyl)-1H-indazole] |
| 40.6 | 56.1 | 18.1 | COc1ccc(F)cc1Cc1ccc2[nH]nc(/C=C/c3ccccn3)c2c1 [Example D09F01, (E)-5-(5-fluoro-2-methoxybenzyl)-3-(2-(pyridin-2-yl)vinyl)-1H-indazole] |
| 90.9 | 171 | 125 | Cn1cc(/C=C/c2n[nH]c3ccc(NS(=O)(=O)c4cc(F)cc(F)c4)cc23)cn1 [Example D5217, (E)-3,5-difluoro-N-(3-(2-(1-methyl-1H-pyrazol-4-yl)vinyl)-1H-indazol-5-yl)benzenesulfonamide] |
| 10.6 | 19.1 | 14.1 | CCn1cc(/C=C/c2n[nH]c3ccc(NS(=O)(=O)c4cc(F)cc(F)c4)cc23)cn1 [Example D5218, (E)-3,5-difluoro-N-(3-(2-(1-ethyl-1H-pyrazol-4-yl)vinyl)-1H-indazol-5-yl)benzenesulfonamide] |
| 120 | 215 | 175 | O=S(=O)(Nc1ccc2[nH]nc(/C=C/c3cn[nH]c3)c2c1)c1cc(F)cc(F)c1 [Example D5220, (E)-3,5-difluoro-N-(3-(2-(1H-pyrazol-4-yl)vinyl)-1H-indazol-5-yl)benzenesulfonamide] |
| 144 | 196 | 128 | O=S(=O)(Nc1ccc2[nH]nc(/C=C/c3cnn(CCO)c3)c2c1)c1cc(F)cc(F)c1 [Example D5221, (E)-3,5-difluoro-N-(3-{2-[1-(2-hydroxyl-ethyl)-1H-pyrazol-4-yl]-vinyl}-1H-indazol-5-yl)-benzenesulfonamide] |
| 18.9 | 133 | 40.7 | O=S(=O)(c1cc(F)cc(F)c1)c1ccc2[nH]nc(/C=C/c3ccncc3)c2c1 [Example E01F02, (E)-5-((3,5-difluorophenyl)sulfonyl)-3-(2-(pyridin-4-yl)vinyl)-1H-indazole] |
| 35.8 | 441 | 92.9 | O=S(=O)(c1cc(F)cc(F)c1)c1ccc2[nH]nc(/C=C/c3ccccc3)c2c1 [Example E01F07, (E)-5-((3,5-difluorophenyl)sulfonyl)-3-styryl-1H-indazole] |
| 43.8 | 220 | 82.9 | Cc1ccccc1/C=C/c1n[nH]c2ccc(S(=O)(=O)c3cc(F)cc(F)c3)cc12 [Example E01F08, (E)-5-((3,5-difluorophenyl)sulfonyl)-3-(2-methylstyryl)-1H-indazole] |
